Assay results published in US12540150B1, “Fluorogenic probe using a Mislow-Evans rearrangement for real-time imaging of hydrogen peroxide” (University of Pittsburgh—Of the Commonwealth System of …, priority 2020, dated 2026).
Several values for one entry are separate records, joined by “and”; a condition that tells them apart may be missing. Identical values can stand only once.

Tests used:
RAW cells = assay: Imaging of endogenous H2O2 upon ionomycin stimulation in RAW cells; type: cell-based
From the text: After detecting exogenously added H2O2 in cells, the focus shifted to more biologically relevant, endogenous H2O2. It was attempted to monitor endogenous H2O2 production upon stimulation with ionomycin in RAW cells. […] In contrast, with probe 1, a significant response was observed within 30 s after the addition of ionomycin relative to the baseline fluorescence (FIG. 24B-C) and peaked at 48 s.

[1] = Fluorescence response of 1 with increasing concentrations of H2O2; settings: 0-159 μM H2O2 solutions, phosphate pH 7 buffer, 25° C., 20 min
Experimental: To verify that 1 could quantitatively measure H2O2 concentrations, 1 was incubated with increasing concentrations of H2O2. A solution of 0-159 μM H2O2 in 5:95 MeCN/50 mM phosphate pH 7 buffer (180 μL) was added to the wells of a black 96-well plate. A solution of 100 μM 1 in MeCN (20 μL) was then added to the wells. The solutions were allowed to incubate at 25° C. for 20 min before the fluorescence was measured.

[2] = Fluorescence intensity of selenide 1 and phenol 5; type: physicochemical
Experimental: All fluorescence measurements (excitation 490 nm, emission 510-570 nm) were carried out using a Promega Biosystems Modulus II Microplate Reader or a HoribaMax Fluorometer unless otherwise stated. Data analysis was performed using GraphPad Prism 8.
The fluorescence intensity of selenide 1 and phenol 5 were investigated. Solutions containing ultrapure water (681 μL), […] phosphate pH 7 buffer (31 μL), DMSO (28.1 μL), and 80 μM 1 or phenol 5 in DMSO (9.4 μL) were made. Aliquots of these solutions (200 μL) were transferred to the wells of a black 96-well plate and the fluorescence was measured. As evident from FIG. 10 and Table 1, the difference in fluorescence intensity of probe 1 and phenol 5, is 27-fold. Generally, O-alkylation of Pittsburgh Green suppresses the fluorescence by 200-400 fold. The somewhat modest fluorescence increase in the current system is attributed to the trace contamination of the fluorescent compound 5 during the purification of the nonfluorescent probe 1.

[3] = Selectivity of 1: reaction with O2^·−; settings: for Fluorescence Intensity: 15 min
Experimental: (§1) Following the concentration dependence studies, the selectivity of 1 was assessed against O2^·−, ^1O2, ·OH, ClO^−, ONOO^−, 'BuOOH, NO3^−, NO2, and NO·. […] The production of some of these ROS required H2O2 as a reagent or generated H2O2 as a product, for which we carefully performed control experiments as detailed below. For example, a solution of 100 μM 1 in ethanol (20 μL) was added to 5:95 methanol/50 mM phosphate pH 7 buffer (140 μL). […] A control containing 100 μM 1 in ethanol (20 μL), 5:95 methanol/50 mM phosphate pH 7 buffer (160 μL), and 700 mM H2O2 (20 μL) was also generated. The solutions were allowed to incubate at 25° C. for 15 min prior to measuring fluorescence. […] Therefore, 1 is selective for H2O2 over O2^·−.

[4] = Selectivity of 1 against various ROS and RNS (FIG. 14B); settings: O2^·−, ^1O2, ·OH, ClO^−, ONOO^−, tBuOOH, NO3^−, NO2, NO·
Experimental: as §1

[5] = Selectivity of 1: reaction with NO3^−; settings: for Fluorescence: 15 min minus 0 min
Experimental: The probe 1 was then exposed to NO3^− at various concentrations. NaNO3 (30.9 mg) was dissolved in ultrapure water (2.00 mL). This solution was diluted to 10 μM, 100 μM, 1.00 mM, and 10.0 mM. H2O2 was diluted to 10 μM, 100 μM, 1.00 mM, and 10.0 mM. A solution of 100 μM 1 in ethanol (20 μL) was added to 5:95 methanol/50 mM pH 7 potassium phosphate buffer (160 μL). The NaNO3 or H2O2 solutions (20 μL) were added to the solution containing 1 and the fluorescence intensity was measured immediately and again after incubation at 25° C. for 15 min. The fluorescence change over the first 15 min was reported for NO3^− in FIG. 21 and Table 12. The fluorescence values in Table 12 are the fluorescence at 15 min minus the fluorescence at 0 min.

[6] = Selectivity of 1: reaction with tBuOOH; settings: for Fluorescence Intensity: pH 7, 25° C., 15 min
Experimental: 'BuOOH was also tested for reactivity with 1. A solution of 5:95 MeCN/50 mM phosphate pH 7 buffer (160 μL) was added to the wells of a black 96-well plate. 10 μM 1 in DMSO (20 μL) was added to each well. 0 mM H2O2 in water (20 μL) or 0, 10, or 100 μM tBuOOH in DMSO (20 μL) were then added to the wells.

zebrafish = assay: Zebrafish tail wound-healing model imaging of H2O2; type: in vivo; settings: three-day post-fertilization zebrafish embryos, 1 mM 1 for 2 h
From the text: H2O2 has been recognized as a critical signaling molecule for the recruitment of immune cells for wound regeneration. To date, only genetically encoded protein-based fluorescent probes have been able to illuminate the spatiotemporal dynamics of H2O2 for wound healing models in zebrafish. It was hypothesized that our method might be rapid enough to match the protein-based imaging in vivo. As a platform to test this hypothesis, 1 was applied to image a zebrafish tail wound-healing model.
Three-day post-fertilization zebrafish embryos were removed from their chorion and allowed to swim in 1 mM 1 for 2 h (0.1% v/v DMSO), leading to effective dye loading. Following this, the fish were anesthetized and mounted in agar. The tail fins were clipped with a razor blade.
Fluorescence images were obtained every 60 s for 60 min using an inverted Nikon TiE fluorescent microscope (Nikon Inc., Melville, NY) equipped with a 20× 0.75 NA lens and NIS Elements Software. The sample was excited using the 470 nm line of a Lumencor diode-pumped light engine (SpectraX, Lumencor Inc., Beaverton OR), and the fluorescence signals were detected using an ET-GFP filter set (Chroma Technology Corp) and ORCA-Flash 4.0 sCMOS camera (HAMAMATSU Corporation, Bridgewater, NJ).

Oc1ccc2c(c1)Oc1cc(O/C=C/C[Se]c3ccccc3)ccc1[C@@]21OCc2ccccc21 [Compound 1, (S,E)-6′-((3-(Phenylselanyl)prop-1-en-1-yl)oxy)-3H-spiro[isobenzofuran-1,9′-xanthen]-3′-ol]
time of fluorescence peak after the addition of ionomycin (RAW cells): 48 s
time to significant response after the addition of ionomycin (RAW cells; 0.5 μM 1, ionomycin 10 μM): ≤ 30 s
fluorescence dependence on H2O2 concentration [1]: increased linearly with H2O2 concentration
signal increase in the conversion if trace phenol 5 can be removed from selenide 1 ([2]; extrapolated): 125-250 fold
difference in fluorescence intensity of probe 1 and phenol 5 ([2]; phosphate pH 7 buffer): 27 fold
Fluorescence Intensity ([2]; water/phosphate pH 7 buffer/DMSO, 200 μL, excitation 490 nm, emission 510-570 nm, replicates n = 3): 7,053 and 11,524 and 8,556
reaction with O2^·− [3]: did not react
Fluorescence Intensity ([3]; KO2 + 10 U/mL catalase, pH 7, 25° C.): 104,768 and 72,151 and 98,514
Fluorescence Intensity ([3]; KO2 + 10^4 U/mL catalase, pH 7, 25° C.): 63,553 and 41,950 and 67,009
Fluorescence Intensity ([3]; KO2, phosphate pH 7, 25° C.): 106,099 and 92,938 and 99,300
reaction with other ROS and RNS relative to H2O2 [4]: little reaction was observed
reaction with NO3^− [5]: did not react
Fluorescence ([5]; 0 μM NO3^− or H2O2, pH 7, 25° C.): 24,359 and 26,870 and 26,226
Fluorescence ([5]; 0.1 μM H2O2): 58,172 and 52,104 and 52,249
Fluorescence ([5]; 0.1 μM NO3^−): 34,507 and 35,439 and 40,487
Fluorescence ([5]; 1 μM H2O2): 266,770 and 242,313 and 222,834
Fluorescence ([5]; 1 μM NO3^−): 43,966 and 35,385 and 47,433
fluorescence with tBuOOH [6]: did not produce fluorescence even at 10 μM
Fluorescence Intensity ([6]; 10 μM ^tBuOOH): 31,650 and 28,922 and 33,363
Fluorescence Intensity ([6]; H2O2): 277,013 and 296,506 and 250,145
Fluorescence Intensity ([6]; no ROS): 34,525 and 36,401 and 39,836
time of maximum fluorescence after tail snipping (zebrafish): 10 to 20 min
